Test results: patent publication US20060241150A1, “P38 kinase inhibitor compositions and methods of using the same” (priority 2003, published 2006)
“Also recorded” adds a separate entry of the source.

Columns and labels:
[1] = tested on: Caspase 3; assay: Caspase-3/CPP32 colorimetric protease assay on lysates of HIV-1 infected cells; assay type: cell-based, human; details: 89.6 or pNL4-3 virus; FIG. 1D
Procedure: (§1) FACS analysis was performed to identify cells undergoing apoptosis. Equal numbers of cells from each test group were collected for analysis. Apoptosis in experimental cells was analyzed by using an Annexin-V assay kit from PharMingen (CA). Data was analyzed by the CELL Quest program (Beckton-Dickinson, CA). Caspase 3 activity was determined using Caspase-3/CPP32 colorimetric protease assay kit according to the manufacturer's instructions (MBL, Nagoya, Japan).

[2] = tested on: HIV-1 induced apoptosis in human PBMCs; assay: Annexin V-FITC FACS analysis of HIV-1 induced apoptosis in infected PBMCs; assay type: cell-based; details: for inhibition of apoptosis induced by 4 subtype divergent primary HIV viral isolates: FIG. 1C
Procedure: (§2) The human CD4^+ T cell line Jurkat, or the monocyte line U937 were obtained from the American Type Culture Collection (Rockville, Md.). Cells were passaged in RPMI1640 (Gibco-BRL, MD) supplemented with 10% FBS, 2 mM L-glutamine, 100 U/ml penicillin G, and 100 μg/ml streptomycin maintained at 37° C. and 5% CO2 and verified routinely to certify that they were Mycoplasma negative. Human PBMCs were isolated from healthy HIV-seronegative donors by Ficoll-Hypaque separation (Pharmacia Biotech AB, Sweden). Peripheral blood mononuclear cells (PBMCs) from healthy adults were incubated for 2 days with 5 μg/ml phytohemagglutinin (PHA, Sigma) before the addition of 5 U/ml of human recombinant interleukin-2 (hrIL-2; R&D system, MN).
Viruses that were assayed in these studies included the pNL 4-3 (dual tropic) virus, which uses both CCR5 & CxCR4 receptors, and 89.6 (dual tropic), which uses CCR5 & CxCR4 receptors. In addition clade specific viruses were studied and these were obtained through the NIH AIDS research and Reference Reagent Program. For infection studies human PBMCs were isolated from normal, sero-negative donors, and infection was accomplished by incubating target cells with HIV-1 virus at a concentration of 100 TCID50/10^6 cells/ml. Culture supernatant was collected at 6, 12 and 24 hr intervals and assayed for virus production by measuring the p24 antigen released into the medium by ELISA (Coulter, FL) according to the manufacturer's instructions. Some data are presented as mean±SEM. For data presented as percent change, the base line (medium alone) value was subtracted from the value of each experimental condition as described in the legend.
as §1

[3] = tested on: FasL expression in HIV-infected Jurkat T cells; assay: FasL expression by flow cytometry in HIV-infected Jurkat T cells; assay type: cell-based, human; details: 1 μm, 89.6 or pNL4-3
Procedure: as §2
(§3) Viruses that were assayed in these studies included the pNL 4-3 (dual tropic) virus, which uses both CCR5 & CxCR4 receptors, and 89.6 (dual tropic), which uses CCR5 & CxCR4 receptors. In addition clade specific viruses were studied and these were obtained through the NIH AIDS research and Reference Reagent Program. […]
(§4) Single cell suspensions were washed in PBS (pH 7.2) containing 0.2% bovine serum albumin and 0.1% NaN3. […] Data were analyzed using the CELL Quest program (Beckton-Dickinson, CA).

[4] = tested on: Nef mediated FasL expression in human PBMCs; assay: p24gag / FasL flow cytometry in PBMCs infected with Nef positive pNL4-3 virus; assay type: cell-based; details: 1 μM; PBMCs infected with pNL4-3 Wt (Nef positive) virus
Excerpt: (§5) Constructs containing Nef were generated using overlap extension PCR at the indicated codons and were cloned into the pCDNA3.1 vector (InVitrogen, CA). The HIV-1 proviral infectious vector pNL4-3 was obtained through the NIH AIDS research and Reference Reagent Program. This vector has been rendered Nef deficient by 5′ frame shift mutation in the Nef region (He, J., Choe, et al, J. Virol. 69, 6705-6711 (1995) which is incorporated herein by reference).
To prepare infectious viral stocks, HIV-1 proviral DNA (pNL4-3 Wt and pNL4-3 and Nef delta) were generated as described Muthumani, K., et al, Journal of Biol. Chem. 277: 37820-37831 (2002). The viral titers were determined by infection of the human T cell line Jurkat using serially diluted virus supernatant. […] Viral stocks were normalized for virus content by infection and titration and stocks were stored in the presence of 10% FBS in aliquots at −80° C. until their use.
(§6) Single cell suspensions were washed in PBS (pH 7.2) containing 0.2% bovine serum albumin and 0.1% NaN3. Cells were incubated with PE labeled […]-CD95L antibody (NOK-1, 0.05 μg/ml, BD Pharmingen, CA, USA) antibody for 60 minutes at 4° C. Cells were washed with PBS and fixed with 2% paraformaldehyde and resuspended in 200 μl PBS and subjected to FACS (FL2 histogram) analysis (Beckton Dickinson, CA). Data were analyzed using the CELL Quest program (Beckton-Dickinson, CA).

[5] = tested on: AP-1; assay: AP-1 dependent luciferase reporter assay in Nef transfected Jurkat cells; assay type: cell-based, human; details: 1 μM; 24 hours
Procedure: (§7) Jurkat cells (1×10^6) were seeded onto a 60 mm culture dish (Falcon) and elctrotransfected the cells next day with NF-κB or AP-1 dependent reporter plasmid (10 μg) with pNef (10 μg), and/with or without Cpd4 (1 μM). After 24 hours, transfected cells were lysed with Reporter lysis Buffer (RLB) according to the manufacturer's instructions (Roche, USA). Luciferase activity was measured via LUMAT LB9501 (Berthold, USA). β-Gal levels were used to normalize for transfection efficiency with the chemiluminescent β-Gal reporter gene Assay kit (Roche, USA).

[6] = tested on: p38 MAPK; assay: Immunoblot of p38 and phospho-p38 in Nef treated Jurkat cells; assay type: cell-based, human; details: 1 μM
Procedure: Experimental cells were washed with ice-cold PBS, and the cells were lysed in protein lysis buffer (20 mM Tris (pH7.4), 150 mM NaCl, 1 mM EDTA, 1 mMEGTA, 1% triton, 2.5 mM sodium pyrophosphate, 1 mM □-glycerolphasphate, 1 mM Na3Vp4, 1 μM/ml leupeptin and 1 mM phenyl methyl-sulfonyl fluoride). After a brief sonication, the lysates were clarified by centrifugation at 10,000 rpm and protein content was measured by the Bradford method (Bio-Rad, CA).
For Western blot analysis 50 μg of protein per lane was loaded onto acrylamide gels and separated by 12% SDS-PAGE and blotted to PVDF tmnsfer membrane. […] Further, the membrane was washed thoroughly using lxWestern re-probe buffer (Geno Tech, MO) and re immunoblotted with anti-actin (Calbiochem, CA) antibody, which recognizes the actin expression in cultured and serves cells as a positive control for gene expression and as an internal standard.

[7] = tested on: c-Jun; assay: Immunoblot of c-Jun in nuclear extracts of Nef treated cells; assay type: cell-based, human; details: 1 μM
Procedure: Experimental cells were washed with ice-cold PBS, and the cells were lysed in protein lysis buffer (20 mM Tris (pH7.4), 150 mM NaCl, 1 mM EDTA, 1 mMEGTA, 1% triton, 2.5 mM sodium pyrophosphate, 1 mM […]-glycerolphasphate, 1 mM Na3Vp4, 1 μM/ml leupeptin and 1 mM phenyl methyl-sulfonyl fluoride). After a brief sonication, the lysates were clarified by centrifugation at 10,000 rpm and protein content was measured by the Bradford method (Bio-Rad, CA). Nuclear extracts were prepared using NE-PER nuclear and cytoplasmic extraction reagents (Pierce, USA) and the protein concentration of the nuclear extract was determined by BCA-200 protein assay kit (Pierce, USA) assayed following the manufacturer's instructions.
For Western blot analysis 50 μg of protein per lane was loaded onto acrylamide gels and separated by 12% SDS-PAGE and blotted to PVDF tmnsfer membrane. Immunoblot was carried out using the primary antibody (c-Jun, Phospho-p38 MAP Kinase (Thr180/Tyr182); Cell Signaling, MA, USA) and detected with secondary HRP-conjugated anti-rabbit IgG using Amersham ECL system. Further, the membrane was washed thoroughly using lxWestern re-probe buffer (Geno Tech, MO) and re immunoblotted with anti-actin (Calbiochem, CA) antibody, which recognizes the actin expression in cultured and serves cells as a positive control for gene expression and as an internal standard.

[8] = tested on: NF-κB; assay: NF-κB dependent luciferase reporter assay in Nef transfected Jurkat cells; assay type: cell-based, human; details: 1 μM; 24 hours
Procedure: as §7

[9] = target: p38 MAP Kinase (Homo sapiens, UniProt Q16539); details: cited from earlier work
p38 MAP Kinase, sequence (Q16539 whole entry): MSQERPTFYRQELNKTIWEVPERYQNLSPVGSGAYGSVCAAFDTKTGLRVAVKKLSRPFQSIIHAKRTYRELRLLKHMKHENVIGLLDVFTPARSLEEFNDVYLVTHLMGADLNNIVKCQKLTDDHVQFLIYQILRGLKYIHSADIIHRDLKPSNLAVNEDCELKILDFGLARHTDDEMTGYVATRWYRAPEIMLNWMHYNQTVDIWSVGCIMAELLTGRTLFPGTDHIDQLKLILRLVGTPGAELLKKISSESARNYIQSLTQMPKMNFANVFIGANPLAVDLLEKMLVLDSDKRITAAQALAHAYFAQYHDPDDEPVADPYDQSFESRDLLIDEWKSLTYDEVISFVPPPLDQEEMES

[10] = tested on: FasL expression in HIV-infected PBMCs; assay: FasL expression by flow cytometry in HIV-infected PBMCs; assay type: cell-based, human; details: 1 μm; PBMC's; 89.6 or pNL4-3
Procedure: as §2, §3, §4

[11] = tested on: apoptosis of CD8+ T cells co-cultured with HIV infected macrophages; assay: Bystander CD8+ T cell apoptosis induced by HIV infected macrophages (Annexin V); assay type: cell-based, human; details: 1 μM; latex bead stimulated 89.6 infected macrophages with autologous CD8+ T cells
Procedure: Monocyte-derived macrophages (MDM) were prepared from PBMCs obtained from healthy donors and incubated at 37° C. in polystyrene T-75 flasks for 4-10 hrs at 37° C. After the incubation the cells were washed with RPMI 1640 for 3 times to remove non-adherent cells. The adherent monocytes were detached with ethylene diamine tetra-acetic acid (EDTA) and the purity of the monocyte cell populations thus isolated was >98% as determined by FACS staining for CD14^+. The CD14^+ positive cells were incubated in 6-well plates at a density of 1×10^6 cells/ml in RPMI medium supplemented with 10% human serum.
Human PBMC's were isolated from healthy HIV-seronegative donors as described above. Purified CD8^+ T cells were isolated from PBMC by negative immunoselection using magnetic beads (Dynal, CA), for depletion of CD4^+ T cells. The puity of the isolated CD8+ T cells was determined to be by flow >99% pure. MDM were purified from freshly isolated PBMC as described above. MDM cells were cultured in 6 well plates at 0.5×10^6 cells/ml/well with 10 ng/ml M-CSF (R&D systems, MN) in RPMI 1640/10% Human serum. […] The analysis was performed on a gated CD8^+ T-cells (R1) and further CD8^+ positive cells were analyzed for the CD8^+/Annexin V positive cells (R2 population) in all experimental samples to further analysis the Apoptosis.

[12] = tested on: Nef driven FasL expression in Jurkat cells; assay: FasL expression in Jurkat cells transfected with pNef; assay type: cell-based, human
Excerpt: as §5, §6

C[S+]([O-])c1ccc(-c2nc(-c3ccc(F)cc3)c(-c3ccncc3)[nH]2)cc1 (stereo not drawn) [SB203580, 4-[5-(4-Fluoro-phenyl)-2-(4-methanesulfinyl-phenyl)-3H-imidazol4-yl]-pyridine, reference compound]
inhibition of Caspase 3 activity [1]: ~50%
inhibition of apoptosis induced by 4 subtype divergent primary HIV viral isolates ([2]; 1 μM): could inhibit apoptosis
inhibition at 1 µM ([2]; Homo sapiens, PBMC, 96 h, read-out: inhibition of apoptosis driven by virus (Annexin V-FITC)): > 50%

OCCC#Cc1nc(-c2ccc(F)cc2)c(-c2ccncc2)n1CCCc1ccccc1 [Cpd4, 4-(4-Fluorophenyl)-2-(4-hydroxybutyn-1-yl)-1-(3-phenylpropyl)-5-(4-pyridyl)imidazole]
inhibition of FasL induction [3]: Strong inhibition of FasL induction; also recorded: severely repressed the surface expression of FasL
inhibition of Nef mediated FasL expression [4]: aborted completely; also recorded: completely inhibited
inhibition of Caspase 3 activity [1]: ~80%
blocking of Nef activation of AP-1 reporter [5]: effectively blocked this effect
total levels of p38 [6]: did not alter the total levels of p38
Nef induced phosphorylation of p38 ([6]; 15-min exposure): no detectable increase in the phosphorylation of p38
Nef mediated phosphorylation / activation of c-Jun [7]: decrease in the phosphorylated status of c-Jun; also recorded: can be blocked
blocking of Nef activation of NF-κB reporter [8]: effectively blocked this effect
inhibition of p38 MAP Kinase ([9]; at 1 μM concentrations): inhibit p38 MAP Kinase
anti-p38 activity compared with SB203580 [9]: higher anti-p38 activity
inhibition of apoptosis driven by virus (Annexin V-FITC) ([2]; 1 μM, 89.6 or pNL4-3 virus, 4 days post infection): over 80%
inhibition of apoptosis induced by 4 subtype divergent primary HIV viral isolates ([2]; 1 μM): could inhibit apoptosis
inhibition of FasL induction [10]: Strong inhibition of FasL induction; also recorded: severely repressed the surface expression of FasL
blocking of bystander CD8+ T cell apoptosis [11]: effectively blocked bystander apoptosis; also recorded: could prevent Nef driven apoptosis of bystander cells
inhibition of Nef driven induction of FasL [12]: potent inhibition of Nef driven induction of FasL; also recorded: thoroughly repressed Nef-induced FasL expression; also recorded: highly suppressed; also recorded: could prevent Nef driven FasL activation
